Assays:
[1] = target: T1, Alpha-2A adrenergic receptor (Homo sapiens, UniProt P08913); type: cell membranes, Sf9, Membrane; conditions: sf9; note: in other assays of this panel Not Active means under 50% inhibition at 10 µM
T1 sequence (P08913 whole entry): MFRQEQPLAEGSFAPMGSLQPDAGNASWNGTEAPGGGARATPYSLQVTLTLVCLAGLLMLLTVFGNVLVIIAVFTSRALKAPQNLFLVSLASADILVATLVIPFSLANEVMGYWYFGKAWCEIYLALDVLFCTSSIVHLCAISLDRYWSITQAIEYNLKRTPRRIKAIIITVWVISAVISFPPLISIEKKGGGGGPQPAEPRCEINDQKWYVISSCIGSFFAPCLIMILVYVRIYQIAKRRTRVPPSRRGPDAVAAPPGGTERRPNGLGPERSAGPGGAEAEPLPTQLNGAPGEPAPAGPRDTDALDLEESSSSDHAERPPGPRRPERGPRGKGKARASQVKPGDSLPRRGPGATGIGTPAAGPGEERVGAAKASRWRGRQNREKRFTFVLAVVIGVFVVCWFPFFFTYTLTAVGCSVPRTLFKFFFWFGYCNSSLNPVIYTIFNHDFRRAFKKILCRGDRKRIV

[2] = target: Glycine receptor (Rattus norvegicus, UniProt P22771+P24524+P07727+P20781); type: cell membranes, Wistar, Spinal cord, Membrane; note: in other assays of this panel Not Active means under 50% inhibition at 10 µM
[3] = target: T2, Progesterone receptor (Bos taurus, UniProt Q690N0); assay: DRUGMATRIX: Progesterone radioligand binding (ligand: [3H] R-5020); type: tissue-based, Uterus; conditions: Not Active = under 50% inhibition at 10 µM
T2 sequence (Q690N0 whole entry): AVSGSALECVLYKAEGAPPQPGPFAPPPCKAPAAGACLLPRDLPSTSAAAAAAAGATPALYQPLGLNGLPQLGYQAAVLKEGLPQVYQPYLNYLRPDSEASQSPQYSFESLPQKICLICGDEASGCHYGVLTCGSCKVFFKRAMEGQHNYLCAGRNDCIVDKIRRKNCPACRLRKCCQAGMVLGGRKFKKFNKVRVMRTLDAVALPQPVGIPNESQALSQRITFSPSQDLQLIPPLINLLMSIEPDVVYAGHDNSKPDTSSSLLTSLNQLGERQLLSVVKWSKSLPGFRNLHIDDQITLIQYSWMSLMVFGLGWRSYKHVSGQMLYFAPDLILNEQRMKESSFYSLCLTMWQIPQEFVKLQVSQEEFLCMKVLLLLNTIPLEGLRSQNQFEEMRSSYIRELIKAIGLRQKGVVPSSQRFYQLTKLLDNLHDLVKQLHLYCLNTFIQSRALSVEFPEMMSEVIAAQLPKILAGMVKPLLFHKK

[4] = target: Tyrosine-protein kinase Lck (Homo sapiens, UniProt P06239); assay: DRUGMATRIX: Protein Tyrosine Kinase, LCK enzyme inhibition (substrate: Poly(Glu:Tyr)); type: cell-based, Insect cells; conditions: insect cells; Not Active = under 50% inhibition at 10 µM
Sequence of Tyrosine-protein kinase Lck (P06239 whole entry): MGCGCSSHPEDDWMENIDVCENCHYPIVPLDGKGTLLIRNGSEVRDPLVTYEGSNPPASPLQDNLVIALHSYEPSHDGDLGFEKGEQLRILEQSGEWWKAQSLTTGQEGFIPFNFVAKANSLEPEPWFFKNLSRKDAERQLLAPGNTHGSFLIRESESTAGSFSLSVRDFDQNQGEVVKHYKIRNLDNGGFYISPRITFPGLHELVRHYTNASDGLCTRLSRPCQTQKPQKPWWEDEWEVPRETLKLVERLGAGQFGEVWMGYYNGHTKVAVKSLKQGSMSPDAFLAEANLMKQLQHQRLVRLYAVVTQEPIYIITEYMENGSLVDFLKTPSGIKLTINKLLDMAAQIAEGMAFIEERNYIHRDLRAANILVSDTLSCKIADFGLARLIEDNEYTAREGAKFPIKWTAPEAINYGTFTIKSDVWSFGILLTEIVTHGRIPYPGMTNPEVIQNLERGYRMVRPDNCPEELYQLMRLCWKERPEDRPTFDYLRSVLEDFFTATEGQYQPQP

[5] = DRUGMATRIX: Purinergic P2X radioligand binding (ligand: [3H] alpha, beta-Methylene-ATP); type: cell membranes, Oryctolagus cuniculus, New Zealand albino, Urinary bladder, Membrane; conditions: Not Active = under 50% inhibition at 10 µM

Molecule	IC50 [1]	IC50 [2]	IC50 ([3]; read-out: IC50) [µM]	Ki ([3]; read-out: Ki) [µM]	IC50 [4]	IC50 [5]	Ki [5]	IC50 [3]	IC50 ([1]; read-out: IC50) [µM]	Ki ([1]; read-out: Ki) [µM]	Ki [2]	Ki [3]	Ki [4]
C#CC1(O)CC[C@H]2[C@@H]3CCC4=CC(=O)CC[C@@H]4[C@H]3CC[C@@]21CC (stereo not given in full) [NORGESTREL]	Not Active	Not Active	0.00351	0.000458	Not Active	Not Active	Not Active						
COC(=O)Nc1nc2ccc([S+]([O-])c3ccccc3)cc2[nH]1 (stereo not given) [OXFENDAZOLE]	Not Active	Not Active			Not Active	Not Active	Not Active	Not Active					
CC(=O)O[C@H]1C(=O)[C@@]2(C)[C@H]([C@H](OC(=O)c3ccccc3)[C@]3(O)C[C@H](OC(=O)[C@H](O)[C@@H](NC(=O)c4ccccc4)c4ccccc4)C(C)=C1C3(C)C)[C@]1(OC(C)=O)CO[C@@H]1C[C@@H]2O [PACLITAXEL]	Not Active	Not Active			Not Active	Not Active	Not Active	Not Active					
C[n+]1ccc(-c2cc[n+](C)cc2)cc1.[Cl-].[Cl-] [PARAQUAT DICHLORIDE]	Not Active	Not Active			Not Active	Not Active	Not Active	Not Active					
CCn1cc(C(=O)O)c(=O)c2cnc(N3CCCC3)nc21 [PIROMIDIC ACID]	Not Active	Not Active			Not Active	Not Active	Not Active	Not Active					
C[n+]1ccccc1/C=N/O.[Cl-] [PRALIDOXIME CHLORIDE]	Not Active	Not Active			Not Active	Not Active	Not Active	Not Active					
C[C@]12C=CC(=O)C=C1CC[C@@H]1[C@@H]2[C@@H](O)C[C@@]2(C)[C@H]1CC[C@]2(O)C(=O)CO [PREDNISOLONE]	Not Active	Not Active			Not Active	Not Active	Not Active	Not Active					
CC(=O)[C@H]1[C@H](C#N)C[C@H]2[C@@H]3CC=C4C[C@@H](O)CC[C@]4(C)[C@H]3CC[C@@]21C [PREGNENOLONE CARBONITRILE]	Not Active	Not Active			Not Active	Not Active	Not Active	Not Active					
CCCN(CCC)S(=O)(=O)c1ccc(C(=O)O)cc1 [PROBENECID]	Not Active	Not Active			Not Active	Not Active	Not Active	Not Active					
CCCNCC(O)COc1ccccc1C(=O)CCc1ccccc1 (stereo not given) [PROPAFENONE]	Not Active	Not Active			Not Active	Not Active	Not Active	Not Active					
CCCOc1ccc(C(=O)OCCN(CC)CC)cc1N [PROPARACAINE]	Not Active	Not Active			Not Active	Not Active	Not Active	Not Active					
CC(C)c1cccc(C(C)C)c1O [PROPOFOL]	Not Active	Not Active			Not Active	Not Active	Not Active	Not Active					
C[C@@H]1O[C@@H](O[C@@H]2C=C3CC[C@@H]4[C@H](CC[C@]5(C)[C@@H](c6ccc(=O)oc6)CC[C@]45O)[C@@]3(C)CC2)[C@H](O)[C@H](O)[C@H]1O [PROSCILLARIDIN]	Not Active	Not Active			Not Active	Not Active	Not Active	Not Active					
Oc1cccc(O)c1O [PYROGALLOL]	Not Active	Not Active			Not Active	Not Active	Not Active	Not Active					
AURANOFIN		Not Active			Not Active	Not Active	Not Active	Not Active	0.884	0.331	Not Active	Not Active	Not Active
